One test concerns the target human BRAF (Homo sapiens, UniProt P15056). The experiment in a line: Protein kinase assay (33P-ATP filter binding), human BRAF, 10-dose IC50. Format: biochemical. The note with it: MEK1 (K97R) substrate 1 micromolar, ATP 25 micromolar, read-out: B-RAF IC50. Here is the method: Protein kinase assay: Assay platform was used to measure kinase/inhibitor interactions as described previously (Anastassiadis et al., 2011). In brief, for each reaction, kinase and substrate were mixed in a buffer containing 20 mM HEPES (pH 7.5), 10 mM MgCl2, 1 mM EGTA, 0.02% Brij35, 0.02 mg/mL BSA, 0.1 mM Na3VO4, 2 mM DTT, and […]. All compounds were solubilized in DMSO. Compounds were then added to each reaction mixture via acoustic dispense using an ECHO 550 nanoliter dispenser. For human RAF1 testing, human MEK1 (K97R) was used as a substrate at a concentration of 3 micromolar, with a final ATP concentration of 10 micromolar. For human BRAF testing, human MEK1 (K97R) was used as a substrate at 1 micromolar concentration, with a final ATP concentration of 25 micromolar. […] After a 20-min incubation, ATP (Sigma-Aldrich, St. Louis, Mo. 63178) and [g33P] ATP (specific activity 10 microCi/microliter) purchased at PerkinElmer (Boston, Mass., 02118 Cat #BLU 003H250UC) were added at a final total concentration of […]. Reactions were carried out at room temperature for 2 hr and spotted onto P81 ion exchange cellulose chromatography paper (Reaction Biology). Filter paper was washed in 0.75% phosphoric acid to remove unincorporated ATP. The percent remaining kinase activity relative to a vehicle-containing (DMSO) kinase reaction was calculated for each kinase/inhibitor pair. IC50 values were calculated using Prism 5 (GraphPad).

Another test deals with human RAF1 (Homo sapiens, UniProt P04049). The test is described as follows: Protein kinase assay (33P-ATP filter binding), human RAF1, 10-dose IC50. In kind it is biochemical. The note with it: MEK1 (K97R) substrate 3 micromolar, ATP 10 micromolar, read-out: RAF-1 IC50. The method, boiled down:
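Radiometric filter-binding format: 10 µM ATP, 3 µM MEK1 (K97R) as substrate for human RAF1, 2 hr at room temperature in 20 mM HEPES pH 7.5 with 10 mM MgCl2. Compounds were dispensed acoustically from DMSO. IC50 came from percent kinase activity relative to vehicle over a 10-dose series.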

SMILES strings stand for the structures.

Chain of human BRAF (P15056 whole entry): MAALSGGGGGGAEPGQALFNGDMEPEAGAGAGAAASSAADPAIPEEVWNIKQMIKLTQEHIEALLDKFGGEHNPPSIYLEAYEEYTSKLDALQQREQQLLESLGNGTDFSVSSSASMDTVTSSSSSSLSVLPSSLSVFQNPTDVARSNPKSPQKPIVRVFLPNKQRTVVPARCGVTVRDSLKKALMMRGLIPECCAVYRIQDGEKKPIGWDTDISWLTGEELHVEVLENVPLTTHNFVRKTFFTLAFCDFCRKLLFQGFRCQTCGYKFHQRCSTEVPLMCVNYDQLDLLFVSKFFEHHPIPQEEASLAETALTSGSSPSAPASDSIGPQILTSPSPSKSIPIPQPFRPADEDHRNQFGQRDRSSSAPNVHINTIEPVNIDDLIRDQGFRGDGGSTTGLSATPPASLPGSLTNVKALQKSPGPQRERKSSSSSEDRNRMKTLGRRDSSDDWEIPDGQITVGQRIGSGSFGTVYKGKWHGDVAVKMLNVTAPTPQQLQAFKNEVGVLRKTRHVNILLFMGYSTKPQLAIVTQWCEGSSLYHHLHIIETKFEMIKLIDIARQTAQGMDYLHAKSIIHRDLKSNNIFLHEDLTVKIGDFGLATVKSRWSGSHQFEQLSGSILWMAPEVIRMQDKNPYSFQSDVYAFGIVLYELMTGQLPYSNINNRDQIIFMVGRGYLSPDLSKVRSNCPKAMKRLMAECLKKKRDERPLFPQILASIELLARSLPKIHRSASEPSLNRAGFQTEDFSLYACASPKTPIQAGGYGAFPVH
Chain of human RAF1 (P04049 whole entry): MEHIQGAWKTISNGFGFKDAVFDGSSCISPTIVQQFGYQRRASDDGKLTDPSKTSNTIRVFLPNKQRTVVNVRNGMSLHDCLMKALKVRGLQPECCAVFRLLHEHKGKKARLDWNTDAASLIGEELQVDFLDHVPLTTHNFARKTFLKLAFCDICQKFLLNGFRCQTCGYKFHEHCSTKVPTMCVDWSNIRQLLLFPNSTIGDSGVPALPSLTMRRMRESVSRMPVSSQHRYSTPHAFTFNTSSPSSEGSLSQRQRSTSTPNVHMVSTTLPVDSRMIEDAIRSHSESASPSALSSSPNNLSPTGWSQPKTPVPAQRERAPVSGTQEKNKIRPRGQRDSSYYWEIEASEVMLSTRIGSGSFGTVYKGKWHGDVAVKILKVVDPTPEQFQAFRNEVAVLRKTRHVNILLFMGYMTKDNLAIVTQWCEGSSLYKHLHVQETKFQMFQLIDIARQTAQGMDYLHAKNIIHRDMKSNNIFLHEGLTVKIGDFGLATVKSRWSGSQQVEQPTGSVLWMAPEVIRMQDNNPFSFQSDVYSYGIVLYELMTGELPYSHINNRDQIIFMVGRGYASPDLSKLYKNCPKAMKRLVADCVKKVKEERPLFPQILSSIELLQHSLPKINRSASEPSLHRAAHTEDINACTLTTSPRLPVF

Regarding `Cc1cc(F)c(NC(=O)N2CCCC(C(C)(C)C)C2)cc1-c1cc(OCCO)nc(N2CCOCC2)c1` (racemic) [Example 8, (RS)-3-(tert-butyl)-N-(2-fluoro-5-(2-(2-hydroxyethoxy)-6-morpholinopyridin-4-yl)-4-methylphenyl)piperidine-1-carboxamide], the figures for the IC50 at human BRAF and on human RAF1 were 10 to 100 nM and less than 10 nM, respectively.
The like results for `Cc1cc(F)c(NC(=O)N2CCOC(C(F)(F)F)C2)cc1-c1cc(OCCO)nc(N2CCOCC2)c1` (racemic) [Example 10, (RS)-N-(2-fluoro-5-(2-(2-hydroxyethoxy)-6-morpholinopyridin-4-yl)-4-methylphenyl)-2-(trifluoromethyl)morpholine-4-carboxamide] were, in that order, 10 to 100 nM and less than 10 nM.
With `Cc1cc(F)c(NC(=O)N2CCNC(C(C)(C)C)C2)cc1-c1cc(OCCO)nc(N2CCOCC2)c1` (racemic) [Example 11, (RS)-3-(tert-butyl)-N-(2-fluoro-5-(2-(2-hydroxyethoxy)-6-morpholinopyridin-4-yl)-4-methylphenyl)piperazine-1-carboxamide], the half-maximal inhibitory concentration (IC50) (usually the point on the concentration scale where inhibition reaches its midpoint) lay within 100 to 1000 nM at human BRAF and 10 to 100 nM on human RAF1.
For `Cc1cc(F)c(NC(=O)N2CC[C@@H](C(F)(F)F)C2)cc1-c1cc(OCCO)nc(N2CCOCC2)c1` [Example 1, (R)-N-(2-fluoro-5-(2-(2-hydroxyethoxy)-6-morpholinopyridin-4-yl)-4-methylphenyl)-3-(trifluoromethyl)pyrrolidine-1-carboxamide] the same measures were 10 to 100 nM and less than 10 nM.
For `Cc1cc(F)c(NC(=O)N2CC[C@H](C(F)(F)F)C2)cc1-c1cc(OCCO)nc(N2CCOCC2)c1` [Example 2, (S)-N-(2-fluoro-5-(2-(2-hydroxyethoxy)-6-morpholinopyridin-4-yl)-4-methylphenyl)-3-(trifluoromethyl)pyrrolidine-1-carboxamide] the same measures were 10 to 100 nM and less than 10 nM.
For `Cc1cc(F)c(NC(=O)NCCC(C)(C)C)cc1-c1cc(OCCO)nc(N2CCOCC2)c1` [Example 6, 1-(3,3-dimethylbutyl)-3-(2-fluoro-5-(2-(2-hydroxyethoxy)-6-morpholinopyridin-4-yl)-4-methylphenyl)urea], the values for the IC50 at human BRAF and on human RAF1 were 10 to 100 nM and less than 10 nM, respectively.
Turning to `Cc1cc(F)c(NC(=O)N2CCOC(C(C)(C)C)C2)cc1-c1cc(OCCO)nc(N2CCOCC2)c1` (centres unmarked) [Example 9, 2-(tert-butyl)-N-(2-fluoro-5-(2-(2-hydroxyethoxy)-6-morpholinopyridin-4-yl)-4-methylphenyl)morpholine-4-carboxamide], the IC50 was 10 to 100 nM on human BRAF and less than 10 nM at human RAF1.

These data come from patent publication US20230081390A1, “INHIBITORS OF RAF KINASES” (Kinnate Biopharma Inc., priority 2019, published 2023).
